Like-named read-outs stand apart in the source and are kept apart here.

For one data set, the target named is TYK2 (Homo sapiens, UniProt P29597). Put plainly: JAK kinase activity inhibition, TR-FRET (TYK2). The conditions noted are these: TR-FRET kinase assay. It is filed as biochemical. An outline of the steps:
(§1)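 Enzymatic inhibition measured by time-resolved FRET using 0.1-20 nM kinase with peptide substrate and ATP, reacted 0.5-5 hours at room temperature. Percent inhibition was normalized to DMSO (no inhibitor) and kinase-free wells, and concentration-response data were fitted with a 4-parameter logistic model.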
A general note: In TR-FRET formats the signal depends on donor and acceptor labels being close together.

Data set [1] concerns JAK-STAT signal pathway of U266 cells. Kind of data set: Inhibition of cellular JAK-STAT signal pathway (STAT3 phosphorylation) in U266 cells. It counts as cell-based, human. The conditions noted are these: Homo sapiens, U-266, INF-a 1000 U/mL stimulation. The method, then: The objective of the test is to test the inhibitory activity of the compound on the cellular JAK-STAT signaling pathway.
U266 cell line was used in this experiment, by activating the JAK-STAT signaling pathway through INF-a stimulation, the inhibitory activity of the compound on its downstream STAT3 phosphorylation was detected, and the half inhibitory concentration IC50 of the compound on the JAK-STAT signaling pathway activity was obtained.
3-12 μL of U266 cell line was spread into the 384-well detection plate, and the number of cells in each well was 100-300 K, followed by addition of 2 μL of the compound solution serially diluted. The plate was incubated for 2 hours with shaking at 350 rpm at room temperature. After 2 hours, 2 μL of INF-a with a final concentration of 1000 U/mL was added. The plate was shaken at room temperature for 15 minutes. 2-5 μL (5×) LANCE Ultra Lysis Buffer 2 solution was added and the plate was shaken at room temperature for 2 hours. After 2 hours, 5 μL of LANCE Ultra Eu-labeled Anti-STAT3 Antibody (PerkinElmer) with a final concentration of 0.5 nM and LANCE Ultra ULight-labeled Anti-STAT3 Antibody (PerkinElmer) with a final concentration of 5 nM were added, and the plate was incubated overnight at room temperature. The fluorescence signal value at 665 nm of each well was measured with the microplate reader, and the inhibition rate was calculated from the fluorescence signal value. According to the inhibition rate of different concentrations, the IC50 of the compound was obtained by curve fitting.
The percentage inhibition data of the wells treated with the compound was calculated with the positive control wells (DMSO control wells) and negative control wells (no kinase added) on the plate {% inhibition rate=100-[(test compound value-negative control value)]/(Positive control value-negative control value)×100}. IC50 value was calculated by using GraphPad prism to fit the data of different concentrations and corresponding percentage inhibition rates to a 4-parameter non-linear logic formula.

Data set [2] in a line: Balb/C mouse pharmacokinetics (plasma, colon, ileum). It counts as in vivo. The conditions noted are these: male, po, Balb/C mice, p.o. 5 mg/kg; for Cmax: read-out: Blood concentration Cmax; for AUC(0-t): read-out: Curve area AUC0-t; for AUC(0-inf): read-out: Curve area AUC0-∞; for half-life: read-out: Half life period t1/2 (converted); for MRT: read-out: Mean detention time MRT; for Tmax: read-out: Time to peak tmax. From the text:
Balb/C mouse was used as the test animal, the pharmacokinetic behavior in mice (plasma and colon, ileum tissue) was studied after oral administering the embodiment 1, embodiment 60, embodiment 169, embodiment 170, embodiment 171, embodiment 179, embodiment 191, embodiment 213, embodiment 214, embodiment 237, embodiment 238, embodiment 244, embodiment 246, embodiment 247, embodiment 257, embodiment 260, embodiment 262, embodiment 263, embodiment 267, embodiment 277, embodiment 278, embodiment 279, embodiment 288, embodiment 295, embodiment 299 and embodiment 301 at a dose of 5 mg/kg. After analyzing the drug concentration in the colon and ileum, the ratio of the drug concentration in the colon to that in ileum, and the ratio of the drug concentration in the colon to that in the plasma, the compounds with excellent PK were selected for further research.
12 Balb/C mice in each group, male, Shanghai Jiesjie Experimental Animal Co., Ltd., animal production license number (SCXK (Shanghai) 2013-0006 N0.311620400001794).
12 Balb/C mice in each group, male; p.o. after one night fast; the dose was 5 mg/kg; the administration volume was 10 mL/kg.
At 0, 0.5, 1, 2, 3, 5 and 7 hours before and after the administration, the mice were executed by CO2 and 0.2 mL of blood was collected from the heart, placed in an EDTA-K2 test tube, and centrifuged at 6000 rpm at 4° C. for 6 minutes to separate the plasma, which was then stored at −80° C. The ileum was taken close to the cecum end with a length of about 4-5 cm, and the colon was also taken close to the cecum end with a length of about 2-3 cm, weighed and placed in a 2 mL centrifuge tube, then stored at −80° C.
1) 40 uL of plasma sample was precipitated by adding 160 uL of acetonitrile, mixed and centrifuged at 3500×g for 5-20 minutes.
2) 30 μL of plasma and intestinal homogenate sample were precipitated by adding 90 of acetonitrile containing internal standard (100 ng/mL), mixed and centrifuged at 13000 rpm for 8 minutes.
3) 70 μL of the supernatant solution after treatment was collected and 70 μL of water was added thereto, vortexed and mixed for 10 minutes, and then 20 μL was collected to analyze the concentration of the test compound by LC/MS/MS. LC/MS/MS analysis instrument: AB Sciex API 4000 Qtrap.
Liquid phase conditions: Shimadzu LC-20AD Pump
Chromatographic column: Agilent ZORBAX XDB-C18 (50×2.1 mm, 3.5 μm) mobile phase: 0.1% formic acid aqueous solution as A solution, acetonitrile as B solution
Elution time: 0-4.0 minutes, the eluent is as follows:
The main pharmacokinetic parameters were calculated with WinNonlin 6.1, and the results of mouse pharmacokinetic experiments are shown in Table 3:
NA refers to none detected or not being tested (the detection limit of blood concentration was 1 ng/mL, when the Cmax in the blood test is NA, then NA in the blood test index refers to none detected; when the Cmax in the blood test is higher than the quantitative limit 1 ng/mL, then NA in the blood test index refers to not being tested; NA in the tissues (colon and ileum) refers to not being tested).

The next data set has as its target JAK1 (Homo sapiens, UniProt P23458). Kind of data set: JAK kinase activity inhibition, TR-FRET (JAK1). It counts as biochemical. The conditions noted are these: TR-FRET kinase assay. An outline of the steps:
as §1

JAK1, sequence (P23458 whole entry): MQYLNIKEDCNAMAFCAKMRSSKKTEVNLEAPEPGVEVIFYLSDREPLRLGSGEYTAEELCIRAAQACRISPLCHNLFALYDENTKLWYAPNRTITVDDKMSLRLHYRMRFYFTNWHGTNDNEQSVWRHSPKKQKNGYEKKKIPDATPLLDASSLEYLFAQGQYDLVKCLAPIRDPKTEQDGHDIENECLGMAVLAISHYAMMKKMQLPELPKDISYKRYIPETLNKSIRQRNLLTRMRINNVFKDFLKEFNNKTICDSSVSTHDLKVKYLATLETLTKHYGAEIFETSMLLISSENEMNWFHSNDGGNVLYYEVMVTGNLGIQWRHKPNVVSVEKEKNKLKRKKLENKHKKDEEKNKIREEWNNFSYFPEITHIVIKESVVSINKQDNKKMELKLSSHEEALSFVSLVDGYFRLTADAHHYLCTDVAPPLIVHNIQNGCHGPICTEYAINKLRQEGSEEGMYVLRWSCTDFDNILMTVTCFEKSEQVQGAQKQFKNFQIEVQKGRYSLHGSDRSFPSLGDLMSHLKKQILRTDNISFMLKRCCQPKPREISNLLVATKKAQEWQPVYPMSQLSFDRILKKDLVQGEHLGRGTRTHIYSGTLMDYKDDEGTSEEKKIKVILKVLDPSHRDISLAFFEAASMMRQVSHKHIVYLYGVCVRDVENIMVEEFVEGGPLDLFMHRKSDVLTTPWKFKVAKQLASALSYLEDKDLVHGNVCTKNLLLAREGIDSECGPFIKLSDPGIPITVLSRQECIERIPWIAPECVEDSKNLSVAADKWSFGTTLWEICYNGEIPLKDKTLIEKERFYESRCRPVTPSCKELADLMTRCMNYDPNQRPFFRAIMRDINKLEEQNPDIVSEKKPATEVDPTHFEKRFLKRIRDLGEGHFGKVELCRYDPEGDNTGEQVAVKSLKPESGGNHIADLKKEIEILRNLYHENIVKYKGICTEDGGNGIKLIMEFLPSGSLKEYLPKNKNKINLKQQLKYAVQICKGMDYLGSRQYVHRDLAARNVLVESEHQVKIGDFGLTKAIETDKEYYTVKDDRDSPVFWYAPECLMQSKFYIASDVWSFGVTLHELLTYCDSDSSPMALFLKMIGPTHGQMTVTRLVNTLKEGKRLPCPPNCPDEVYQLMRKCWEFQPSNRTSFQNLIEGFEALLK
TYK2, sequence (P29597 whole entry): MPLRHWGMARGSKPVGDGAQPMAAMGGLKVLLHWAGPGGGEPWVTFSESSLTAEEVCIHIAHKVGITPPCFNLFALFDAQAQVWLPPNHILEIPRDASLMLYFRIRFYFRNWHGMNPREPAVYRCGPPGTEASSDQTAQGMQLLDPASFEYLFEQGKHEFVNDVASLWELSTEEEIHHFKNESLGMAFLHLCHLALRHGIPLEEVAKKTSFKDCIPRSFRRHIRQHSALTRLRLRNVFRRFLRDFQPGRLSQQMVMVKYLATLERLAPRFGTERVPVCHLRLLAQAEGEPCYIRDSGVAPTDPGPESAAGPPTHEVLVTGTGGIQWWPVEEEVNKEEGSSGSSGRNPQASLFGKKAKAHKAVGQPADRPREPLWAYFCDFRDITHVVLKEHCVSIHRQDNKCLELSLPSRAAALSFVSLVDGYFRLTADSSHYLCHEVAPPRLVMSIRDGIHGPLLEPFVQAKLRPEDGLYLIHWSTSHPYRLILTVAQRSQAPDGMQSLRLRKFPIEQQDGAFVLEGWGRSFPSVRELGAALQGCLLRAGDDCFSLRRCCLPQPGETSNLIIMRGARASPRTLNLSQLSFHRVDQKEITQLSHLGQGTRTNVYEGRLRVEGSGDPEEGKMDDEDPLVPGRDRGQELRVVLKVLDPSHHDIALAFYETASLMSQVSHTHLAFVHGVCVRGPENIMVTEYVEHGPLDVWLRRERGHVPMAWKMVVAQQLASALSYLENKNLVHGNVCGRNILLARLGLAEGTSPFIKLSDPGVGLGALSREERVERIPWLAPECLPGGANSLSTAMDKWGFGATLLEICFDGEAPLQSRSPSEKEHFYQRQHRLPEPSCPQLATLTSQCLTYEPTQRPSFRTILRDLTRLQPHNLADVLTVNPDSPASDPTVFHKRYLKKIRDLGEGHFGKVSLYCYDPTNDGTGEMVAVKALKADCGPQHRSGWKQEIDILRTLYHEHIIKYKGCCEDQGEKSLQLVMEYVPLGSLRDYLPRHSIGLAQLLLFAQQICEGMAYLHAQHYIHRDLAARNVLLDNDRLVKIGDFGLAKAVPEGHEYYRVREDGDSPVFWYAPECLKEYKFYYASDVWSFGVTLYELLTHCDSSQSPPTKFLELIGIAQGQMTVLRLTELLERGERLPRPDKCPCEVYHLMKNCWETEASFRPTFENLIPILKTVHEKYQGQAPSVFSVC

As to `Cc1cc(Nc2nc(NC3CCN(CCC#N)CC3)nc3sccc23)n[nH]1` [Embodiment 301, 3-(4-((4-((5-methyl-1H-pyrazol-3-yl)amino)thieno[2,3-d]pyrimidin-2-yl)amino)piperidin-1-yl)propionitrile], the IC50 on TYK2 was 0.45 nM. In addition, in data set [1], the 50% inhibitory concentration (IC50) is 1.26 nM. Further, in data set [2] (plasma, blood), the Cmax was determined as 69.4 ng/mL, the AUC(0-t) worked out at 143 ng·h/mL, the AUC(0-inf) came out at 145 ng·h/mL and the half-life was 1.07 h. Moreover, in data set [2] (plasma, blood), the MRT worked out at 1.65 h and the Tmax is 1 h. For the same molecule, in data set [2] (colon), the Cmax stood at 1500 ng/mL, the AUC(0-t) is 4240 ng·h/mL, the mean residence time MRT came out at 4.74 h and the time of peak concentration (Tmax) is 5 h. Further, in data set [2] (ileum), the Cmax was found to be 21100 ng/mL, the AUC(0-t) came to 35300 ng·h/mL, the AUC(0-inf) stood at 35300 ng·h/mL and the half-life is 0.6 h. In addition, in data set [2] (ileum), the mean residence time (MRT) turned out to be 1.23 h and the Tmax worked out at 1 h. The half-maximal inhibitory concentration (IC50) on JAK1 stood at 1.64 nM.
For the molecule `Cc1cc(Nc2nc(N[C@@H]3C[C@H]4CCC[C@@H](C3)N4C(=O)c3nccn3C)nc3sccc23)n[nH]1` [Embodiment 263, (1-methyl-1H-imidazol-2-yl) ((3-exo)-3-((4-((5-methyl-1H-pyrazol-3-yl)amino)thieno[2,3-d]pyrimidin-2-yl)amino)-9-azabicyclo[3.3.1]non-9-yl)methanone], the half-maximal inhibitory concentration (IC50) at TYK2 turned out to be 0.22 nM. This molecule also yielded an IC50 in data set [1] of 4.07 nM. Further, in data set [2] (plasma, blood), the Cmax was determined as 12.7 ng/mL, the AUC(0-t) is 57.6 ng·h/mL, the MRT came out at 3.51 h and the Tmax is 3 h. For the same molecule, in data set [2] (colon), the Cmax was found to be 5540 ng/mL, the AUC(0-t) came to 15500 ng·h/mL, the mean residence time MRT is 3.58 h and the Tmax is 3 h. In addition, in data set [2] (ileum), the Cmax was found to be 5490 ng/mL, the AUC(0-t) is 9910 ng·h/mL, the AUC(0-inf) turned out to be 9940 ng·h/mL and the half-life is 0.82 h. Also, in data set [2] (ileum), the mean residence time (MRT) was 1.36 h and the time to peak (Tmax) worked out at 1 h. For the same molecule, the IC50 at JAK1 amounted to 0.11 nM.
Take `Cc1cc(Nc2nc(N[C@@H]3C[C@H]4CC[C@@H](C3)N4CCC#N)nc3cc(-c4cccnc4)ccc23)n[nH]1` [Embodiment 179, 3-((3-exo)-3-((4-((5-methyl-1H-pyrazol-3-yl)amino)-7-(pyridin-3-yl)quinazolin-2-yl)amino)-8-azabicyclo[3.2.1]oct-8-yl)propionitrile]: at TYK2, the IC50 amounted to 0.47 nM. The molecule also registered an IC50 in data set [1] of 9.84 nM. In data set [2] (plasma, blood), the Cmax stood at 3.8 ng/mL, the AUC(0-t) is 6.76 ng·h/mL, the MRT is 1.66 h and the Tmax turned out to be 0.5 h. In data set [2] (colon), the Cmax turned out to be 485 ng/mL, the AUC(0-t) was determined as 2040 ng·h/mL, the AUC(0-inf) was 2180 ng·h/mL and the half-life is 1.49 h. Also, in data set [2] (colon), the MRT is 2.83 h and the Tmax was 1 h. In addition, in data set [2] (ileum), the Cmax was found to be 2330 ng/mL, the AUC(0-t) came to 10300 ng·h/mL, the MRT was determined as 2.88 h and the time of peak concentration (Tmax) came out at 3 h. For the same molecule, the IC50 on JAK1 was 0.44 nM.
On to `Cc1cc(Nc2nc(N[C@@H]3C[C@H]4CC[C@@H](C3)N4CCC#N)nc3cc(N4CCOCC4)ccc23)n[nH]1` [Embodiment 191, 3-((3-exo)-3-((4-((5-methyl-1H-pyrazol-3-yl)amino)-7-morpholinoquinazolin-2-yl)amino)-8-azabicyclo[3.2.1]oct-8-yl)propionitrile], for which the 50% inhibitory concentration (IC50) at TYK2 is 0.94 nM. In data set [1], this molecule registered an IC50 of 2.8 nM. In data set [2] (plasma, blood), the Cmax was determined as 0.81 ng/mL and the Tmax was determined as 1 h. In data set [2] (colon), the Cmax came out at 3350 ng/mL, the AUC(0-t) came out at 10600 ng·h/mL, the MRT is 4.59 h and the time of peak concentration (Tmax) was 5 h. For the same molecule, in data set [2] (ileum), the Cmax turned out to be 32600 ng/mL, the AUC(0-t) worked out at 51500 ng·h/mL, the AUC(0-inf) was found to be 51700 ng·h/mL and the half-life is 1.39 h. Besides, in data set [2] (ileum), the mean residence time (MRT) stood at 1.13 h and the Tmax was found to be 1 h. Also, the concentration for half-maximal inhibition (IC50) on JAK1 is 0.41 nM.
On to `Cc1cc(Nc2nc(N[C@@H]3C[C@H]4CCC[C@@H](C3)N4C(=O)CN3CCOCC3)nc3ccsc23)n[nH]1` [Embodiment 288, 1-((3-exo)-3-((4-((5-methyl-1H-pyrazol-3-yl)amino)thieno[3,2-d]pyrimidin-2-yl)amino)-9-azabicyclo[3.3.1]non-9-yl)-2-morpholinoethane-1-one], for which the IC50 at TYK2 was determined as 8.09 nM. Besides, the IC50 in data set [1] worked out at 4.03 nM. For the same molecule, in data set [2] (plasma, blood), the Cmax came out at 11 ng/mL, the AUC(0-t) turned out to be 21.5 ng·h/mL, the AUC(0-inf) amounted to 24.5 ng·h/mL and the half-life is 2.6 h. In addition, in data set [2] (plasma, blood), the MRT is 2.5 h and the Tmax turned out to be 2 h. In data set [2] (colon), the Cmax amounted to 676 ng/mL, the AUC(0-t) worked out at 2900 ng·h/mL, the mean residence time MRT came out at 3.91 h and the time of peak concentration (Tmax) was 3 h. Also, in data set [2] (ileum), the Cmax stood at 7380 ng/mL, the AUC(0-t) worked out at 17600 ng·h/mL, the MRT was determined as 2.89 h and the Tmax came out at 3 h. Also, on JAK1, the IC50 is 0.27 nM.

In general, IC50 refers to the concentration that inhibits the measured activity by half. As a reminder, the MRT is a mean duration of stay, worked out from the concentration-time curve. One may read the Tmax as the time from dosing to the highest level.

For the origin of these results see US20230043863A1, “HETEROAROMATIC DERIVATIVES FOR USE AS REGULATOR, PREPARATION METHOD THEREFOR AND USE THEREOF” (JIANGSU HANSOH PHARMACEUTICAL GROUP CO., LTD., priority 2018, published 2023).
